In publication PMC8048867 (Chemmedchem, 2020):

Key:
[1] = target: T1, recombinant human meprin α (Homo sapiens, UniProt Q16819); test: meprin α inhibition, quenched fluorogenic peptide substrate assay; assay type: biochemical; details: for SF: selectivity factor (K i app meprin β/K i app meprin α): meprin α over meprin β
T1 sequence (Q16819 66-746): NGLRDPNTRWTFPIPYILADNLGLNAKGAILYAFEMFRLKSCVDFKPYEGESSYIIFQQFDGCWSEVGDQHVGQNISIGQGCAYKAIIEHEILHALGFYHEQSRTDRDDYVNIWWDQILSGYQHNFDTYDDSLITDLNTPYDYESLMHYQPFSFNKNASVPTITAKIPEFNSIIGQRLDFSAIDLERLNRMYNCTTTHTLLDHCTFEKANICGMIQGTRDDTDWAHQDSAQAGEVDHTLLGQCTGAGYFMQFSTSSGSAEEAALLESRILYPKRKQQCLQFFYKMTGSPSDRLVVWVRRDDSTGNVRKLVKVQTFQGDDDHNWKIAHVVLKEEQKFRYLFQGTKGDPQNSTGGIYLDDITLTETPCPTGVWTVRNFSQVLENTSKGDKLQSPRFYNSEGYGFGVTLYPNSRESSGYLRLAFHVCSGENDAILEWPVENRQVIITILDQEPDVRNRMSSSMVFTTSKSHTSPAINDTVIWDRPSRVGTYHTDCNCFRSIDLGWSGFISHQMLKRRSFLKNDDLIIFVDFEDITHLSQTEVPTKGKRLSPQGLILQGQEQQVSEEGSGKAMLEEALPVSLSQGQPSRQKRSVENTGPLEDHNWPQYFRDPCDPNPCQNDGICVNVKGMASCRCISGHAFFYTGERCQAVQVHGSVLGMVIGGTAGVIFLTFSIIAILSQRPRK

[2] = target: T2, recombinant human meprin β (Homo sapiens, UniProt Q16820); test: meprin β inhibition, quenched fluorogenic peptide substrate assay; assay type: biochemical
T2 sequence (Q16820 62-701): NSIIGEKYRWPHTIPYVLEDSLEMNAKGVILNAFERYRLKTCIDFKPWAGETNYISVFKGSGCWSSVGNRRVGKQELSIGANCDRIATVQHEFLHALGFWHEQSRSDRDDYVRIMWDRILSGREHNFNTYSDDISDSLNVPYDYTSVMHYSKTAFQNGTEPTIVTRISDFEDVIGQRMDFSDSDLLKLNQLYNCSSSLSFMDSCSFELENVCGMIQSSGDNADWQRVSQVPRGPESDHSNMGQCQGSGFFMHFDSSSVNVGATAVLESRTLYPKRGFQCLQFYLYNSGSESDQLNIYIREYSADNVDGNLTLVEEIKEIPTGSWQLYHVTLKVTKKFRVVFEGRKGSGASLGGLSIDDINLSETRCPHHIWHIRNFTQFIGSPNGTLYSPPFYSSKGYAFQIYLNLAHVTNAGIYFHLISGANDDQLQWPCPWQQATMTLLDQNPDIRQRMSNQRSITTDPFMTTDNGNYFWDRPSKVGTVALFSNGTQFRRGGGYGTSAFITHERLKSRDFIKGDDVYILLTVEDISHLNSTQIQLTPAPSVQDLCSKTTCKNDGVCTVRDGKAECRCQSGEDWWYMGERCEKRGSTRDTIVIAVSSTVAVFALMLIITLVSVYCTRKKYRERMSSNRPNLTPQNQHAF

MMP2 = target: T3, MMP2 (Homo sapiens, UniProt P08253); test: off-target proteinase inhibition MMP2; assay type: biochemical; details: read-out: Relative enzyme activity MMP2
T3 sequence (P08253 110-660): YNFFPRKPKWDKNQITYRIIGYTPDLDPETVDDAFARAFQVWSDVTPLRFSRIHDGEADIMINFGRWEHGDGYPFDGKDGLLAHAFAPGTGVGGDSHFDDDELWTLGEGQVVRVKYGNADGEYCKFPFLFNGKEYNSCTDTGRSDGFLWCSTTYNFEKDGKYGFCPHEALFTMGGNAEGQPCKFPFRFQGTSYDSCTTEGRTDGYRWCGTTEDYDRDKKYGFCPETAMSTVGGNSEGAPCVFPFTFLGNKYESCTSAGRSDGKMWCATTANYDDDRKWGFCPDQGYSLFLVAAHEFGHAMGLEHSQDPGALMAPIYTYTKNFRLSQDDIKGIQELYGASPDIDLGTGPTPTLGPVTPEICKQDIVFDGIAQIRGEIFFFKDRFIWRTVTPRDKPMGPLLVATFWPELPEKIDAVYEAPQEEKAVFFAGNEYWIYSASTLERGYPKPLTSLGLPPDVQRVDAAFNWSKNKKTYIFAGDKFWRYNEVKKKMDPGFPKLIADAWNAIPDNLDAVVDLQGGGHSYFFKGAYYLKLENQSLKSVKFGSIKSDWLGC

MMP9 = MMP9 (Homo sapiens, UniProt P14780); test: off-target proteinase inhibition MMP9; assay type: biochemical; details: read-out: Relative enzyme activity MMP9
Sequence of MMP9 (P14780 107-707 limits assumed): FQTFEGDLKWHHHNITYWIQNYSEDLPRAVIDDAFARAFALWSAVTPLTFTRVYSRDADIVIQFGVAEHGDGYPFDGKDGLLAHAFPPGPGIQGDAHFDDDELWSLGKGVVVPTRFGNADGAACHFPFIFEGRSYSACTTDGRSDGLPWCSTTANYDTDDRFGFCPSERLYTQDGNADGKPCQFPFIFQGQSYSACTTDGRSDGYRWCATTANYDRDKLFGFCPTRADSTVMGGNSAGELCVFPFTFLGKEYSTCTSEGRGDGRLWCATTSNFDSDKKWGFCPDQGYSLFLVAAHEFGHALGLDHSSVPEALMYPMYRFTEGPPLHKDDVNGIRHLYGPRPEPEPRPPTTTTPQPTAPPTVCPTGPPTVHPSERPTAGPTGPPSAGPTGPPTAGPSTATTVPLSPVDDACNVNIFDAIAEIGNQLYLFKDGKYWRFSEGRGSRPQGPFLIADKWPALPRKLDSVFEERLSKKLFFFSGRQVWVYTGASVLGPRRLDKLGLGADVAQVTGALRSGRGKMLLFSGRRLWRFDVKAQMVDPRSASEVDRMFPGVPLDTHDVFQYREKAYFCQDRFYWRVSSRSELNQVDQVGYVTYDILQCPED

MMP13 = MMP13 (Homo sapiens, UniProt P45452); test: off-target proteinase inhibition MMP13; assay type: biochemical; details: read-out: Relative enzyme activity MMP13
ADAM10 = target: T4, ADAM10 (Homo sapiens, UniProt O14672); test: off-target proteinase inhibition ADAM10; assay type: biochemical; details: read-out: Relative enzyme activity ADAM10
T4 sequence (O14672 214-748): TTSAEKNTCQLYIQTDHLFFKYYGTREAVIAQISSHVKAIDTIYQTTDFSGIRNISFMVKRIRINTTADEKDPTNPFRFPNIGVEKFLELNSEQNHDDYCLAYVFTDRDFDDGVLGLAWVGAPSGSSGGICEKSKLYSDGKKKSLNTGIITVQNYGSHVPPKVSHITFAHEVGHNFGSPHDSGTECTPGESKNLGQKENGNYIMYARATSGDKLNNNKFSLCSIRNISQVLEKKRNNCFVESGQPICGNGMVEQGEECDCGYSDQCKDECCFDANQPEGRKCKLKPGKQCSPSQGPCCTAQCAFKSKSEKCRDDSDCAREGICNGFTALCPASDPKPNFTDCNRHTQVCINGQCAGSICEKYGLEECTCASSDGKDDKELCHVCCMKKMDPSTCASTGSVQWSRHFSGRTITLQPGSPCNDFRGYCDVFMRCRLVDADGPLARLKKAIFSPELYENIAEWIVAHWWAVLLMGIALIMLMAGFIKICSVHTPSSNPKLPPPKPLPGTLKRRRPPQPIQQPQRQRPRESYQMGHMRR

ADAM17 = ADAM17 (Homo sapiens, UniProt P78536); test: off-target proteinase inhibition ADAM17; assay type: biochemical; details: read-out: Relative enzyme activity ADAM17
Sequence of ADAM17 (P78536 215-824): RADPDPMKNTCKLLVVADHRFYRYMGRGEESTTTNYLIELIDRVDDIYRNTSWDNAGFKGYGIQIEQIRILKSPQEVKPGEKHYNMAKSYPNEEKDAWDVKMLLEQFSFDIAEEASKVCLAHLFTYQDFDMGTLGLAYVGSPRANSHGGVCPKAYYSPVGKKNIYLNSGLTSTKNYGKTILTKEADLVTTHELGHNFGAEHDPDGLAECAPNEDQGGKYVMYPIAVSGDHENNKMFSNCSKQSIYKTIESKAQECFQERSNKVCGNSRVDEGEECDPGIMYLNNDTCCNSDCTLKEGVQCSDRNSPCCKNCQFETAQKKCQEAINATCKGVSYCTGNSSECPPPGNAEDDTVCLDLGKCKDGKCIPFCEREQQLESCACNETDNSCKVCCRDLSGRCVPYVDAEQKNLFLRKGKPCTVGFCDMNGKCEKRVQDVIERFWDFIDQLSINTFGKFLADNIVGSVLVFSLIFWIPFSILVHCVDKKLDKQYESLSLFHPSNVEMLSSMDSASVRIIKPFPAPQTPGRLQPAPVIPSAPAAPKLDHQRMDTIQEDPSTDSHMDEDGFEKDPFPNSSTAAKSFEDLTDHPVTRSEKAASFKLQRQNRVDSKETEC

mouse ovastacin = target: T5, mouse ovastacin (Mus musculus, UniProt Q6HA09); test: ovastacin inhibition, fluorogenic enzyme activity assay
T5 sequence (Q6HA09 86-435 limits assumed): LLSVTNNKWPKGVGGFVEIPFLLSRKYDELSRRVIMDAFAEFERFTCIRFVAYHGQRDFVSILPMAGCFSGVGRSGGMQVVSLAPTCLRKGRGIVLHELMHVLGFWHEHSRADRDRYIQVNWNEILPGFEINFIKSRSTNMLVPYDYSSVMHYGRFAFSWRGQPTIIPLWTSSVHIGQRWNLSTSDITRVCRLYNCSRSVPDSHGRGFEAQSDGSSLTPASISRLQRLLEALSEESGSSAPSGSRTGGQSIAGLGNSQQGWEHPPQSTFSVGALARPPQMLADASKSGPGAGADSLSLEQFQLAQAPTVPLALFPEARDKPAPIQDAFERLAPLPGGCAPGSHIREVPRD

Structure (SMILES)	Ki [1] [µM]	SF: selectivity factor (K i app meprin β/K i app meprin α) [1]	Ki [2] [µM]	Ki (mouse ovastacin) [µM]	SF Meprin α: selectivity factor (K i app ovastacin/K i app meprin α) (mouse ovastacin)	SF Meprin β: selectivity factor (K i app ovastacin/K i app meprin β) (mouse ovastacin)	other results
O=C(Cn1c(-c2ccccc2)cc2ccccc21)NO [4 a, 2‐(2‐Phenylindol‐1‐yl)ethanehydroxamic acid]	0.069	16	1.08	0.093	1.3	0.1	remaining activity at 10 µM (MMP2): 85%; remaining activity at 200 µM (MMP2): 41%; remaining activity at 10 µM (MMP9): 90%; remaining activity at 200 µM (MMP9): 53%; remaining activity at 10 µM (MMP13): 77%; remaining activity at 200 µM (MMP13): 54%; remaining activity at 10 µM (ADAM10): 89%; remaining activity at 200 µM (ADAM10): 68%; remaining activity at 10 µM (ADAM17): 88%; remaining activity at 200 µM (ADAM17): 56%
O=C(CCn1c(-c2ccccc2)nc2ccccc21)NO [4 d, 3‐(2‐Phenylbenzimidazol‐1‐yl)propanehydroxamic acid]	1.03	27	27.9	9.8	9.5	0.4	
O=C(CCn1c(-c2ccccc2)cc2ccccc21)NO [4 b, 3‐(2‐Phenylindol‐1‐yl)propanehydroxamic acid]	0.414	41	17	1.3	3.1	0.1	
O=C(Cc1c(-c2ccccc2)nnn1-c1ccccc1)NO [2 j, 2‐(3,5‐Diphenyl‐1,2,3‐triazol‐4‐yl)ethanehydroxamic acid]	0.009	161	1.45				
O=C(Cc1c(-c2ccccc2)[nH]c2ccccc12)NO [4 e, 2‐(2‐Phenyl‐1H‐indol‐3‐yl)ethanehydroxamic acid]	0.082	14	1.18				
O=C(Cc1c2ccccc2nn1-c1ccccc1)NO [4 h, 2‐(2‐Phenylindazol‐3‐yl)ethanehydroxamic acid]	0.273	12	3.36				
O=C(CCn1c(-c2ccccc2)nnc1-c1ccccc1)NO [2 h, 3‐(3,5‐Diphenyl‐1,2,4‐triazol‐4‐yl)propanehydroxamic acid]	0.306	138	42.3	31.8	104	0.8	
O=C(Cn1c(-c2ccccc2)nc2cccnc21)NO [4 f, 2‐(2‐Phenylimidazo[4,5‐b]pyridin‐3‐yl)ethanehydroxamic acid]	0.262	17	4.56				
O=C(Cn1c(-c2ccccc2)nc2ncccc21)NO [4 g, 2‐(2‐Phenylimidazo[4,5‐b]pyridin‐1‐yl)ethane‐hydroxamic acid]	1.48	3	4.17				
O=C(CCn1c(-c2ccccc2)ccc1-c1ccccc1)NO [2 b, 3‐(2,5‐Diphenylpyrrol‐1‐yl)propanehydroxamic acid]	0.736	20	15				
O=C(Cn1nc(-c2ccccc2)cc1-c1ccccc1)NO [3 a, 2‐(3,5‐Diphenylpyrazol‐1‐yl)ethanehydroxamic acid]	0.256	41	10.4	1.05	4	0.1	
O=C(CCn1nc(-c2ccccc2)cc1-c1ccccc1)NO [3 b, 3‐(3,5‐Diphenylpyrazol‐1‐yl)propanehydroxamic acid]	0.406	38	15.4	1.1	3	0.1	
O=C(Cn1c(-c2ccccc2)ccc1-c1ccccc1)NO [2 a, 2‐(2,5‐Diphenylpyrrol‐1‐yl)ethanehydroxamic acid]	0.02	216	4.31				fold improvement in potency against meprin α compared to amine 1 d ([1]; compared to 1 d): ~400 fold; remaining activity at 10 µM (MMP2): 83%; remaining activity at 200 µM (MMP2): 1%; remaining activity at 10 µM (MMP9): 92%; remaining activity at 200 µM (MMP9): 1%; remaining activity at 10 µM (MMP13): 79%; remaining activity at 200 µM (MMP13): 5%; remaining activity at 10 µM (ADAM10): 82%; remaining activity at 200 µM (ADAM10): 29%; remaining activity at 10 µM (ADAM17): 82%; remaining activity at 200 µM (ADAM17): 25%
O=C(Cc1c(-c2ccccc2)ncn1-c1ccccc1)NO [2 i, 2‐(3,5‐Diphenylimidazol‐4‐yl)ethanehydroxamic acid]	0.002	222	0.443				
CCCCC[C@H](CC(=O)NO)C(=O)N[C@H](C(=O)N1CCC[C@H]1CO)C(C)C [Actinonin, reference compound]	0.008	27	0.219				
